Test results as given in patent US7022689B2, “5-amidino-n-(2-aminophenethyl)-n-hydroxy-benzenesulffonamide derivative, medical composition containing the same, pharmaceutical use thereof and intermediate therefor” (Kissei Pharmaceutical Co., Ltd., priority 2001, dated 2006).
Structures can show the parent of a compound that is named as a salt.

How the values were obtained:
[1] = target: T1, human activated blood coagulation factor X (Homo sapiens, UniProt P00742); assay: Measurement of inhibitory activity for activated blood coagulation factor X (S-2222 chromogenic substrate); assay type: biochemical; settings: substrate S-2222, tris-NaCl buffer pH 8.4, 10 minutes at 37° C., absorbance 405 nm
T1 construct: purchased Calbiochem
T1 sequence (P00742 235-488 limits assumed): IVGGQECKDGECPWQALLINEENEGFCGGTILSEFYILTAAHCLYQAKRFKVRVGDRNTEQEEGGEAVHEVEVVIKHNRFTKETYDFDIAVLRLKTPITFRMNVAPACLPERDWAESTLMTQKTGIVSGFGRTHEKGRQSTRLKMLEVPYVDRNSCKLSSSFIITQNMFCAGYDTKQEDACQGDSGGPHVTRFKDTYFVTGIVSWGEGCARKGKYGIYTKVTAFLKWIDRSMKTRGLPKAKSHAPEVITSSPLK
T1 sequence (P00742 41-179 partner limits assumed): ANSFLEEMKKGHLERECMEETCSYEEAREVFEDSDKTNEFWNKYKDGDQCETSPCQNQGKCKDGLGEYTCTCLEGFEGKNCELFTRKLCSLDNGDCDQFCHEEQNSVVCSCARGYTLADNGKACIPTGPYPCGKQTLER
Protocol: Measurement of Inhibitory Activity for Activated Blood Coagulation Factor X 2.5 μL of a dimethylsulfoxide solution of a test compound, 187.5 μL of 100 mM tris-200 mM NaCl buffer (pH 8.4) and 50 μL of 1 mM S-2222 (Daiichi Pure Chemicals) aqueous solution were poured into 96 well microplate. Then 10 μL of 0.6 U/mL human activated blood coagulation factor X (Calbiochem) in gelatin-glycine buffer was added and the mixture was incubated for 10 minutes at 37° C. The reaction was terminated with the addition of 50 μL of 60% acetic acid and absorbance (405 nm) was measured by a microplate reader (SPECTRAmax250, Molecular Devices). The group with 2.5 μL of the dimethylsulfoxide solution instead of the test compound solution was defined as the control, and the group with 10 μL of the gelatin-glycine buffer solution instead of human activated blood coagulation factor X was defined as the blank.

human thrombin = target: T2, human thrombin (Homo sapiens, UniProt P00734); assay: Measurement of inhibitory activity for thrombin (S-2238 chromogenic substrate); assay type: biochemical; settings: substrate S-2238, tris-NaCl buffer pH 8.4, 10 minutes at 37° C., absorbance 405 nm
T2 construct: human thrombin (Sigma Chemical Company); purchased Sigma Chemical Company
Protocol: Measurement of Inhibitory Activity for Thrombin
2.5 μL of a dimethylsulfoxide solution of a test compound, 187.5 μL of 100 mM tris-200 mM NaCl buffer (pH 8.4) and 50 μL of 1 mM S-2238 (Daiichi Pure Chemicals) aqueous solution were poured into 96 well microplate. Then 10 μL of 2.0 U/mL human thrombin (Sigma Chemical Company) in gelatin-glycine buffer was added and the mixture was incubated for 10 minutes at 37° C. The reaction was terminated with the addition of 50 μL of 60% acetic acid and absorbance (405 nm) was measured by a microplate reader (SPECTRAmax250, Molecular Devices).
The group with 2.5 μL of the dimethylsulfoxide solution instead of the test compound solution was defined as the control, and the group with 10 μL of the gelatin-glycine buffer solution instead of human thrombin was defined as the blank. The concentration of a test compound that inhibited the absorbance of control by 50% (IC50) was obtained, and this value was used as the index of inhibitory activity for thrombin.

Row | IC50 [1] [nM] | IC50 (human thrombin) [nM] | Structure (SMILES)
1 | 77 | > 100000 | CC(C)c1ccc(CCNS(=O)(=O)c2cc(C(=N)N)ccc2O)c(NCC(=O)O)c1 [Compound 18, [[2-[2-(5-Carbamimidoyl-2-hydroxybenzenesulfonylamino)ethyl]-5-isopropylphenyl]amino]acetic acid]
2 | 7.1 | 37000 | CS(=O)(=O)c1ccccc1-c1ccc(CCNS(=O)(=O)c2cc(C(=N)N)ccc2O)c(NCC(=O)O)c1 [Compound 17, [[4-[2-(5-Carbamimidoyl-2-hydroxybenzenesulfonylamino)ethyl]-2′-methanesulfonylbiphenyl-3-yl]amino]acetic aid hydrochloride]
